Measured values from ChEMBL document CHEMBL1125537, “3'-Azido-3',5'-dideoxythymidine-5'-methylphosphonic acid diphosphate: synthesis and HIV-1 reverse transcriptase inhibition” (J Med Chem, 1992).
Active and inactive are the calls of the source. The rule behind the calls is not given here.

Columns and labels:
MT4 [1] = experiment: antiviral activity against HIV-1 in MT-4 cells using cell-protection assay at a concentration of 200 uM; assay type: functional, cell-based; conditions: Homo sapiens
MT4 [2] = experiment: Average antiviral activity against HIV-1 in MT-4 cells using cell-protection assay; assay type: functional, cell-based; conditions: Homo sapiens

Cc1cn(C2CC(N=[N+]=[N-])C(/C=C/P(=O)(O)Oc3ccccc3)O2)c(=O)[nH]c1=O (stereo not given)
Activity (MT4 [1]): inactive

Cc1cn(C2CC(N=[N+]=[N-])C(/C=C/P(=O)(O)O)O2)c(=O)[nH]c1=O (stereo not given)
Activity (MT4 [1]): inactive

Cc1cn(C2CC(N=[N+]=[N-])C(CCP(=O)(O)O)O2)c(=O)[nH]c1=O (stereo not given)
Activity (MT4 [1]): inactive

Cc1cn([C@H]2C[C@H](N=[N+]=[N-])[C@@H](CO)O2)c(=O)[nH]c1=O [ZIDOVUDINE]
IC50 (MT4 [2]): 60 nM

Cc1cn(C2CC(N=[N+]=[N-])C(CCP(=O)(O)Oc3ccccc3)O2)c(=O)[nH]c1=O (stereo not given)
Activity (MT4 [1]): inactive
